The results in this text go back to US20250257098A1, “NOVEL SST4 SELECTIVE AGONISTS AS NON-OPIOID ANALGESICS” (KØBENHAVNS UNIVERSITET, priority 2022, published 2025).

The target in assay [1] is T1, human somatostatin receptor SST4 (Homo sapiens, UniProt P31391).
T1 construct: expressed in transfected cells; host or cells: HTLA cells
The assay is classed as cell-based.

The target of assay [2] is T2, human somatostatin receptor SST1 (Homo sapiens, UniProt P30872).
T2 construct: expressed in transfected cells; host or cells: HTLA cells
T2 sequence (P30872 whole entry): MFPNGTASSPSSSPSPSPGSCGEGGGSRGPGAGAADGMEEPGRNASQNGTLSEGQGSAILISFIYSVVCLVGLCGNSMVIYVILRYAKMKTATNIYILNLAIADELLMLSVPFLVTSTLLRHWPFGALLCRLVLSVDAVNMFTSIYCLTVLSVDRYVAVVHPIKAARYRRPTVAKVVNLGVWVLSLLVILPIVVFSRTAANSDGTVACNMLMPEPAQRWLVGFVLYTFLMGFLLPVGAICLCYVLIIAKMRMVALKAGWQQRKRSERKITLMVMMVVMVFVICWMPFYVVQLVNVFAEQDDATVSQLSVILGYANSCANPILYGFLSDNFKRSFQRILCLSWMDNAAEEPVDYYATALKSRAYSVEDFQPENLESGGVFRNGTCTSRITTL
It counts as cell-based.

Assay [3] deals with T3, human somatostatin receptor SST3 (Homo sapiens, UniProt P32745).
T3 construct: expressed in transfected cells; host or cells: HTLA cells
T3 sequence (P32745 whole entry): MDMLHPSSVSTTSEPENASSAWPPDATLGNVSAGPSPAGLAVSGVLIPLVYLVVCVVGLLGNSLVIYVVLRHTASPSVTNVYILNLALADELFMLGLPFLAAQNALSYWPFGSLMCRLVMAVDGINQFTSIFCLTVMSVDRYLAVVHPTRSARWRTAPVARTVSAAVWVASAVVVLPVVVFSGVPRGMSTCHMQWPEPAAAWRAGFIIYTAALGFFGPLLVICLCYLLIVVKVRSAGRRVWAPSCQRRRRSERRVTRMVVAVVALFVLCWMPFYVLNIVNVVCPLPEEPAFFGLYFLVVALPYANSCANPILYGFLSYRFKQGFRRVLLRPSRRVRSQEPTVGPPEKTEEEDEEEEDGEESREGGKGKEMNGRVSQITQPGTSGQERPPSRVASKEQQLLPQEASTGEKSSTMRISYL
It counts as cell-based.

Assay [4] concerns model of chronic neuropathic pain (spared nerve injury, SNI). The arrangement: species or system C57BL/6NRj mice. The following applies: mouse, in vivo.
Assay [5] concerns mouse model of post-surgical pain. More on the design: species or system mice. The following applies: in vivo.
Assay [6] concerns the target T4, human somatostatin receptor SST5 (Homo sapiens, UniProt P35346).
T4 construct: expressed in transfected cells; host or cells: HTLA cells
The assay is classed as cell-based.

Assay [7] addresses T5, human somatostatin receptor SST2 (Homo sapiens, UniProt P30874).
T5 construct: expressed in transfected cells; host or cells: HTLA cells
It counts as cell-based.

The test system of assay [8] is LPS-stimulated mouse macrophages. It counts as cell-based, BALB/c mice.

T1 sequence (P31391 whole entry): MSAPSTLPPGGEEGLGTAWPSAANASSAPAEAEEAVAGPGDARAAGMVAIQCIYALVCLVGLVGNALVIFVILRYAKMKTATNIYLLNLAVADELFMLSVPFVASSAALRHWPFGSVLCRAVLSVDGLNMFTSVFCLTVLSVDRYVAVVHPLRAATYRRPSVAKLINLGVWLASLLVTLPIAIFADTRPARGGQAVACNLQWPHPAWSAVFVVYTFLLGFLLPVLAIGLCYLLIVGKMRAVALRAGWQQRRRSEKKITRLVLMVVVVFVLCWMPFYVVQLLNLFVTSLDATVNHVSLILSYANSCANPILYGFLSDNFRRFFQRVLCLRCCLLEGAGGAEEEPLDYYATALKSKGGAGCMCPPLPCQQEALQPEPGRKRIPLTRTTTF
T4 sequence (P35346 whole entry): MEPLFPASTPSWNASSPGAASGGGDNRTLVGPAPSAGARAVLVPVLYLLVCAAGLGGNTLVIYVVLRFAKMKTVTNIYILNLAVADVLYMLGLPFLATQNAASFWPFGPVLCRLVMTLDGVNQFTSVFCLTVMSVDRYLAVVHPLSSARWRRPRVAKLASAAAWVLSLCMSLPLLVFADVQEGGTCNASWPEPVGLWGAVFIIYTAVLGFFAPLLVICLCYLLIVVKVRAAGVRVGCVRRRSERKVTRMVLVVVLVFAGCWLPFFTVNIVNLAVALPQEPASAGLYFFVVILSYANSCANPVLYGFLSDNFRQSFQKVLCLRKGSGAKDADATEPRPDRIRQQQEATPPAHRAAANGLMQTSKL
T5 sequence (P30874 whole entry): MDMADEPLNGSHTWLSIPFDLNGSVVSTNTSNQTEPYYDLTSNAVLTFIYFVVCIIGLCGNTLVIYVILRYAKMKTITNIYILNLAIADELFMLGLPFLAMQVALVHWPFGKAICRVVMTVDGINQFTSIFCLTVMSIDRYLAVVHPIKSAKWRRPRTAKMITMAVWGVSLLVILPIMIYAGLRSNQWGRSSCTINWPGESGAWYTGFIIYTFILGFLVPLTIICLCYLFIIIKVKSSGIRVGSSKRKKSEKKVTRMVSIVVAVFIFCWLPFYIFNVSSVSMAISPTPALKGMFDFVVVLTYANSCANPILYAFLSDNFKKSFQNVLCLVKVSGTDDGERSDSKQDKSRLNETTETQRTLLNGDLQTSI

Take PVCWKFGCPL [HSH-109, PVCwKFGCOL]: in assay [1], the “apparent potency at SST4” value is listed as “low nanomolar range”, the “potency compared with Cont-Ro1” value is given as “more potent” and the “selectivity for SST4 compared with Cont-Ro1” value is “more selective for SST4 than Cont-Ro1”. Moreover, the “apparent potency at SST1” value in assay [2] is on record as “low micromolar range”. In addition, in assay [3], the “activation of SST3” value is “did not significantly activate”. For the same sequence, the “reduction of mechanical hypersensitivity” value in assay [4] is “very robust reduction of mechanical hypersensitivity”. In assay [5], the “area under the curve larger than for Cont-Ro1” value was found to be 39%, the “duration of effect compared with Cont-Ro1” value was “longer lasting”, the “duration of effect versus morphine positive control” value is recorded as “longer lasting than the morphine positive control” and the “effect level compared with Cont-Ro1” value is listed as “tendency for a higher effect level of HSH-109 over Cont-Ro1”. Besides, in assay [5], the expected efficacy entry is “expected to be fully efficacious” and the reduction of hypersensitivity entry was “robust reduction of hypersensitivity”. In addition, in assay [6], the “activation of SST5” value is “did not significantly activate”. For the same sequence, the “activation of SST2” value in assay [7] is reported as “did not significantly activate”. Moreover, in assay [8], the “reduction of MCP1 levels” value is listed as around 47% and the “reduction of TNFα levels” value was around 62%.
